Measurements: publication PMC4109680, “Identification and Preclinical Pharmacology of the γ-Secretase Modulator BMS-869780” (International Journal of Alzheimer's Disease, 2014)

Tests used:
Aβ1-40 (MEF PS1wt) = test: Aβ1-40 ELISA in MEF dKO cultures cotransfected with APP-CTF and human presenilin-1 wild type; format: cell-based; details: wild type human presenilin-1
Procedure: (§1) H4-APPsw cell cultures were maintained on Dulbecco's modified Eagle's medium (DMEM) supplemented with L-glutamine (2 mM), fetal bovine serum (10%), and G418 (100 μg/mL). […] Aβ1-42 and Aβ1-40 assays, and Notch inhibition assays, were carried out as described previously. Mouse embryonic fibroblasts deficient in PS1 and PS2 (MEF dKO) were passaged twice per week in DMEM/F-12 medium, consisting of a 1 : 1 mixture of DMEM and F-12 nutrient mixture supplemented with 10% fetal bovine serum, penicillin, and streptomycin. For expression of human presenilin-1 in MEF dKO cells, the full length human presenilin-1 cDNA open reading frame was cloned between the BamHI and XhoI sites of the vector pcDNA5/FRT (Invitrogen), placing presenilin-1 expression under the control of the CMV promoter. […]
(§2) IC50 determinations for Aβ1-42 and Aβ1-40 in H4-APPsw cultures in 384-well format were determined using homogeneous time-resolved fluorescence immunoassays as previously described. […] In other experiments using H4-APPsw cultures, Aβ was quantified by ELISA; for Aβ1-42 the combination of monoclonal antibodies was 26D6 and 565-HRP; for Aβ1-40 it was TSD and 26D6-HRP, and for Aβ1-x it was 4G8 and 26D6-HRP. […] For Aβ in transiently transfected PS1/PS2 dKO fibroblasts, Aβ1-42 was quantified using an ELISA kit (WACO), and Aβ1-40 was quantified by ELISA as described above for H4-APPsw cultures. […]

Aβ1-40 (MEF M146V) = test: Aβ1-40 ELISA in MEF dKO cultures cotransfected with APP-CTF and human presenilin-1 M146V allele; format: cell-based
Procedure: as §1, §2

SMILES: COc1cc(Nc2nc3n(n2)CCCC[C@H]3c2ccc(F)cc2)ccc1-n1cnc(Cl)c1 [BMS-869780]
- IC50 (Aβ1-40 (MEF PS1wt)): 0.011 µM
- IC50 (Aβ1-40 (MEF M146V); Homo sapiens, presenilin-1 M146V allele): 0.034 µM
- Aβ1-40 IC50 shift in M146V allele relative to wild type presenilin (Aβ1-40 (MEF M146V); MEF cultures): ca. 3 fold
